What was measured:
[1] = tested on: Meloidogyne sp.; experiment: Determination of nematocidal activity against Meloidogyne sp. on potted cucumbers, cv Chinese Long; type: in vivo; conditions: 30 days after transplantation; for % INFESTED ROOT / ROOT DEVELOPMENT / ALL INDEX scale 0-10: 4,000 g/hectare; for ROOT DEVELOPMENT: 100% = healthy comparative root; for ALL INDEX scale 0-10: Bridge-Page infestation scale
Procedure: Determination of Nematocidal Activity Against Meloidogyne sp. The tests aimed at testing the nematocidal activity of the product under examination were carried out using inoculae taken from a farming of Meloidogyne sp. maintained on potted tomato and cucumber plants and grown in greenhouses. To carry out the experiments, portions of roots having a good number of galls and soil were taken from the infested pots, in which larvae were present starting from the second stage of age. New pots having a diameter of 15 cm were half filled with sterile soil. The portions of infested roots, previously cleaned up, were placed on the same in order to be able to correctly assess the degree of infestation and ensure that each pot contains the same nematic charge. 200-300 g of infested soil were subsequently added, then covered with a thin layer of sterile soil. The treatment was carried out by pouring 100 ml of solution on the surface of the soil, in which the product to be tested was dissolved. Tomato or cucumber seedlings at the stage of two or three true leaves were transplanted in the pots thus prepared, one or seven days after application. Different cultivars of tomato or cucumber were used, having a different sensitivity to the parasite and different growth times. In particular, a variety of ornamental tomatoes (cv Microtom) was used for assessing the final production, whose seedlings are small in size and are able to reach the ripeness of the fruit in pots and under greenhouse conditions in about two months The containment capacity of the parasite was detected, 30 and 60 days after transplantation, considering the development of the root system (where 100% is the development achieved by the healthy comparative root) and the presence of galls on the roots. This was estimated using the infestation scale proposed by Bridge-Page, according to which the value zero corresponds to 0% of the root affected and the value 10 corresponds to 100% of infested root. […] 2, 4, 12, 13, 17 and the Compound CR1, on cucumbers, cv Chinese Long, at a dose of 4,000 g/hectare, effecting the survey 30 days after transplantation. […] 2, 4, 8, 12, 13, 17, 127, 129 and the Compound CR1, on cucumbers, cv Chinese Long, at doses of 2,000 g/hectare, 1,000 g/hectare and 500 g/hectare effecting the survey 30 days after transplantation.

[2] = tested on: cucumbers, cv Chinese Long; experiment: Phytotoxicity on cucumbers, cv Chinese Long (soil treatment of potted plants); type: in vivo, cucumber; conditions: zero=no symptoms, 10=destroyed plant
Procedure: New pots having a diameter of 15 cm were half filled with sterile soil. The portions of infested roots, previously cleaned up, were placed on the same in order to be able to correctly assess the degree of infestation and ensure that each pot contains the same nematic charge. 200-300 g of infested soil were subsequently added, then covered with a thin layer of sterile soil. The treatment was carried out by pouring 100 ml of solution on the surface of the soil, in which the product to be tested was dissolved. Tomato or cucumber seedlings at the stage of two or three true leaves were transplanted in the pots thus prepared, one or seven days after application. Different cultivars of tomato or cucumber were used, having a different sensitivity to the parasite and different growth times. In particular, a variety of ornamental tomatoes (cv Microtom) was used for assessing the final production, whose seedlings are small in size and are able to reach the ripeness of the fruit in pots and under greenhouse conditions in about two months The product was evaluated considering the possible phytotoxic effects that may compromise the development of the plant (in this case a zero-ten scale was used, according to which zero=no symptoms, 10=destroyed plant) and the effectiveness against nematodes. […] 2, 4, 12, 13, 17 included in general formula (I) and CR1, described in JP 2000038379 instead of the compound having general formula (I).

Q: For `O=C(OCCC(F)=C(F)F)c1cncnc1` [Comp. Nr. 127], which “GALL INDEX (scale 0-10)” value ([1]; dose applied 0.5 kg ai/ha) is on record?
A: Its value is 3.4.

Q: What about the “WEIGHT OF FRESH PLANT” value ([1]; dose applied 0.5 kg ai/ha) of the same compound?
A: Its value is 26 g.

Q: What about the “GALL INDEX (scale 0-10)” value ([1]; dose applied 1 kg ai/ha) of the same compound?
A: Its value is 2.1.

Q: And the “WEIGHT OF FRESH PLANT” value ([1]; dose applied 1 kg ai/ha)?
A: The value was 29 g.

Q: And the “GALL INDEX (scale 0-10)” value ([1]; dose applied 2 kg ai/ha)?
A: Its value is 0.9.

Q: And the “WEIGHT OF FRESH PLANT” value ([1]; dose applied 2 kg ai/ha)?
A: Its value is 36 g.

Q: With `O=C(OCCC(F)=C(F)F)c1cn2cc(C(F)(F)F)cc(Cl)c2n1` [Comp. Nr. 17] as the compound, how does the “Phytotoxicity (scale 0-10)” value [2] read?
A: The value was 0.

Q: And the “% INFESTED ROOT” value [1]?
A: The value was 3%.

Q: What about the “ROOT DEVELOPMENT” value [1] of the same compound?
A: The value was 85%.

Q: What about the “ALL INDEX scale 0-10” value [1] of the same compound?
A: Its value is 0.3.

Q: What about the “GALL INDEX (scale 0-10)” value ([1]; dose applied 0.5 kg ai/ha) of the same compound?
A: Its value is 3.3.

Q: And the “WEIGHT OF FRESH PLANT” value ([1]; dose applied 0.5 kg ai/ha)?
A: Its value is 26 g.

Q: And the “GALL INDEX (scale 0-10)” value ([1]; dose applied 1 kg ai/ha)?
A: The value was 2.8.

Q: What about the “WEIGHT OF FRESH PLANT” value ([1]; dose applied 1 kg ai/ha) of the same compound?
A: The value was 28 g.

Q: And the “GALL INDEX (scale 0-10)” value ([1]; dose applied 2 kg ai/ha)?
A: The value was 2.2.

Q: What about the “WEIGHT OF FRESH PLANT” value ([1]; dose applied 2 kg ai/ha) of the same compound?
A: Its value is 31 g.

Q: What does the source list for `Cc1nc(C(F)F)c(C(=O)OCCC(F)=C(F)F)s1` [Comp. Nr. 2, 2-methyl-4-difluoromethyl-thiazole-5-carboxylate of 3,4,4-trifluoro-3-butenyl]?
A: Phytotoxicity (scale 0-10) [2]: 0; % INFESTED ROOT [1]: 3%; ROOT DEVELOPMENT [1]: 90%; ALL INDEX scale 0-10 [1]: 0.3; GALL INDEX (scale 0-10) ([1]; dose applied 0.5 kg ai/ha): 2.8; WEIGHT OF FRESH PLANT ([1]; dose applied 0.5 kg ai/ha): 36 g; GALL INDEX (scale 0-10) ([1]; dose applied 1 kg ai/ha): 2.6; WEIGHT OF FRESH PLANT ([1]; dose applied 1 kg ai/ha): 37 g; GALL INDEX (scale 0-10) ([1]; dose applied 2 kg ai/ha): 1.4; WEIGHT OF FRESH PLANT ([1]; dose applied 2 kg ai/ha): 35 g

Q: For `O=C(OCCC(F)=C(F)F)c1csc(C(F)(F)F)n1` [Comp. Nr. 8], which “GALL INDEX (scale 0-10)” value ([1]; dose applied 0.5 kg ai/ha) is on record?
A: The value was 2.5.

Q: What about the “WEIGHT OF FRESH PLANT” value ([1]; dose applied 0.5 kg ai/ha) of the same compound?
A: The value was 25 g.

Q: What about the “GALL INDEX (scale 0-10)” value ([1]; dose applied 1 kg ai/ha) of the same compound?
A: Its value is 2.3.

Q: What about the “WEIGHT OF FRESH PLANT” value ([1]; dose applied 1 kg ai/ha) of the same compound?
A: Its value is 27 g.

Q: What about the “GALL INDEX (scale 0-10)” value ([1]; dose applied 2 kg ai/ha) of the same compound?
A: Its value is 1.2.

Q: And the “WEIGHT OF FRESH PLANT” value ([1]; dose applied 2 kg ai/ha)?
A: Its value is 37 g.

Q: What does the source list for `Cn1cc(C(=O)OCCC(F)=C(F)F)c(C(F)F)n1` [Comp. Nr. 13]?
A: Phytotoxicity (scale 0-10) [2]: 0; % INFESTED ROOT [1]: 0%; ROOT DEVELOPMENT [1]: 95%; ALL INDEX scale 0-10 [1]: 0; GALL INDEX (scale 0-10) ([1]; dose applied 0.5 kg ai/ha): 2.1; WEIGHT OF FRESH PLANT ([1]; dose applied 0.5 kg ai/ha): 36 g; GALL INDEX (scale 0-10) ([1]; dose applied 1 kg ai/ha): 1.2; WEIGHT OF FRESH PLANT ([1]; dose applied 1 kg ai/ha): 38 g; GALL INDEX (scale 0-10) ([1]; dose applied 2 kg ai/ha): 1.2; WEIGHT OF FRESH PLANT ([1]; dose applied 2 kg ai/ha): 39 g

Q: Which results are given for `O=C(OCCC(F)=C(F)F)c1cccnc1` [CR1, pyridyl-3-carboxylate of 3,4,4-trifluoro-3-butenyl, reference compound]?
A: Phytotoxicity (scale 0-10) [2]: 0; % INFESTED ROOT [1]: 8%; ROOT DEVELOPMENT [1]: 70%; ALL INDEX scale 0-10 [1]: 0.8; GALL INDEX (scale 0-10) ([1]; dose applied 0.5 kg ai/ha): 4.8; WEIGHT OF FRESH PLANT ([1]; dose applied 0.5 kg ai/ha): 23 g; GALL INDEX (scale 0-10) ([1]; dose applied 1 kg ai/ha): 3.5; WEIGHT OF FRESH PLANT ([1]; dose applied 1 kg ai/ha): 25 g; GALL INDEX (scale 0-10) ([1]; dose applied 2 kg ai/ha): 2.8; WEIGHT OF FRESH PLANT ([1]; dose applied 2 kg ai/ha): 30 g

Q: With `Cc1cc(C(=O)OCCC(F)=C(F)F)no1` [Comp. Nr. 129] as the compound, how does the “GALL INDEX (scale 0-10)” value ([1]; dose applied 0.5 kg ai/ha) read?
A: The value was 3.6.

Q: And the “WEIGHT OF FRESH PLANT” value ([1]; dose applied 0.5 kg ai/ha)?
A: The value was 25 g.

Q: And the “GALL INDEX (scale 0-10)” value ([1]; dose applied 1 kg ai/ha)?
A: The value was 2.4.

Q: And the “WEIGHT OF FRESH PLANT” value ([1]; dose applied 1 kg ai/ha)?
A: Its value is 26 g.

Q: What about the “GALL INDEX (scale 0-10)” value ([1]; dose applied 2 kg ai/ha) of the same compound?
A: Its value is 0.9.

Q: What about the “WEIGHT OF FRESH PLANT” value ([1]; dose applied 2 kg ai/ha) of the same compound?
A: Its value is 35 g.

Q: How did the “Phytotoxicity (scale 0-10)” value [2] turn out when `O=C(OCCC(F)=C(F)F)c1cccnc1C(F)(F)F` [Comp. Nr. 12] was run?
A: The value was 0.

Q: What about the “% INFESTED ROOT” value [1] of the same compound?
A: Its value is 0%.

Q: What about the “ROOT DEVELOPMENT” value [1] of the same compound?
A: Its value is 95%.

Q: What about the “ALL INDEX scale 0-10” value [1] of the same compound?
A: Its value is 0.

Q: What about the “GALL INDEX (scale 0-10)” value ([1]; dose applied 0.5 kg ai/ha) of the same compound?
A: Its value is 3.1.

Q: And the “WEIGHT OF FRESH PLANT” value ([1]; dose applied 0.5 kg ai/ha)?
A: Its value is 27 g.

Q: And the “GALL INDEX (scale 0-10)” value ([1]; dose applied 1 kg ai/ha)?
A: The value was 2.9.

Q: And the “WEIGHT OF FRESH PLANT” value ([1]; dose applied 1 kg ai/ha)?
A: Its value is 28 g.

Q: What about the “GALL INDEX (scale 0-10)” value ([1]; dose applied 2 kg ai/ha) of the same compound?
A: The value was 2.1.

Q: And the “WEIGHT OF FRESH PLANT” value ([1]; dose applied 2 kg ai/ha)?
A: The value was 31 g.

Q: What does the source list for `Cc1nnc(C(=O)OCCC(F)=C(F)F)s1` [Comp. Nr. 4, 5-methyl-1,3,4-thiadiazole-2-carboxylate of 3,4,4-trifluoro-3-butenyl]?
A: Phytotoxicity (scale 0-10) [2]: 0; % INFESTED ROOT [1]: 3%; ROOT DEVELOPMENT [1]: 90%; ALL INDEX scale 0-10 [1]: 0.3; GALL INDEX (scale 0-10) ([1]; dose applied 0.5 kg ai/ha): 2.2; WEIGHT OF FRESH PLANT ([1]; dose applied 0.5 kg ai/ha): 35 g; GALL INDEX (scale 0-10) ([1]; dose applied 1 kg ai/ha): 1.9; WEIGHT OF FRESH PLANT ([1]; dose applied 1 kg ai/ha): 37 g; GALL INDEX (scale 0-10) ([1]; dose applied 2 kg ai/ha): 1.9; WEIGHT OF FRESH PLANT ([1]; dose applied 2 kg ai/ha): 34 g
